According to patent publication US11247983B2, “Compounds and methods for inhibiting JAK” (Dizal (Jiangsu) Pharmaceutical Co., Ltd., priority 2015, dated 2022):

Legend:
[1] = system: NCI-H1650 tumor xenografts; experiment: In vivo efficacy in the H1650 xenograft model (Example 71); design: species or system mice; conditions: oral, 21 days; gefitinib 6.25 mg/kg QD, Example 32 25 or 50 mg/kg BID; combination compared to single agent gefitinib
Method: (§1) Tumor volume was measured twice a week.

[2] = system: NCI-H1975 tumor xenografts; experiment: In vivo efficacy in the H1975 xenograft model (Example 69); design: species or system mice; conditions: oral, 18 days; osimertinib 2.5 mg/kg QD, Example 32 12.5, 25 or 50 mg/kg BID; combination compared to osimertinib alone, single agent relative to vehicle
Method: as §1

[3] = system: LG1049 non-small cell lung cancer PDX tumor xenografts; experiment: In vivo efficacy in the LG1049 xenograft PDX model (Example 72)
Method: SUMMARY: LG1049 non-small cell lung cancer PDX tumor xenografts were grown subcutaneously in female NSG mice. […] Tumor volume was measured twice a week.
(§2) MATERIALS AND METHODS: LG1049 tumor fragments were implanted subcutaneously in female NSG mice (JAX Stock No. 005557).

[4] = system: NCI-H1975 tumor xenografts; experiment: In vivo efficacy of intermittent Example 32 dosing schedules in the H1975 xenograft model (Example 73); design: species or system mice; conditions: oral, 19 to 29 days; osimertinib 2.5 mg/kg QD, Example 32 12.5, 25 or 50 mg/kg BID on continuous or intermittent schedules; combination compared to osimertinib alone, single agent relative to vehicle
Method: as §1
MATERIALS AND METHODS: NCI-H1975 cells (a human NSCLC cell line with L858R and T790M mutations in the EGFR gene), were implanted subcutaneously in female NCr nude mice (Taconic Laboratories), 3×10^6 cells/mouse.

[5] = system: pSTAT3 (Y705) in LG1049 tumors; experiment: pSTAT3 levels in LG1049 tumor lysates (Western blot, Example 72); assay type: in vivo, mice; conditions: Example 32 25 mg/kg BID, 5 days of treatment, 4H after the final dose
From the text: MATERIALS AND METHODS: LG1049 tumor fragments were implanted subcutaneously in female NSG mice (JAX Stock No. 005557). Once tumor volumes reached ˜125-275 mm^3, mice were randomized into 5 groups (10 mice/group, average tumor volume 189 mm^3, range 138-253 mm^3).

[6] = system: pSTAT3 (Y705) in NCI-H1975 tumors; experiment: pSTAT3 (Y705) levels in NCI-H1975 tumor lysates (pharmacodynamics, Example 69); assay type: in vivo, mice; conditions: Example 32 12.5, 25, 50 mg/kg BID, after one day of treatment, samples 2, 8 and 24 hours after the AM dose
Method: MATERIALS AND METHODS: NCI-H1975 cells (a human NSCLC cell line with L858R and T790M mutations in the EGFR gene) tumor cells were implanted subcutaneously in female NCr nude mice (Taconic Laboratories), 3×10^6 cells/mouse. […] Drug levels in plasma were measured by LC/MS, using a Linear Ion Trap Quadrupole LC/MS/MS Mass Spectrometer (QTRAP 5500 model 1024945-BB, AB Sciex Instruments), with separation on a Waters Xbridge C18 column.

[7] = system: pSTAT3 (Y705) in NCI-H1650 tumors; experiment: pSTAT3 levels in NCI-H1650 tumor lysates (Western blot, Example 71); assay type: in vivo, mice; conditions: measured after one day of treatment
Method: Twenty-three days after cell implantation, the mice were randomized into 6 groups (9 mice/group, average tumor volume 257 mm^3, range 205-303 mm^3). […] Drug levels in plasma were measured by LC/MS, using a Linear Ion Trap Quadrupole LC/MS/MS Mass Spectrometer (QTRAP 5500 model 1024945-BB, AB Sciex Instruments), with separation on a Waters Xbridge C18 column.

[8] = system: pSTAT3 (Y705) in PC-9 tumors; experiment: pSTAT3 (Y705) levels in PC-9 tumor lysates (Western blot, Example 70); assay type: in vivo, mice; conditions: Example 32 12.5 and 50 mg/kg BID with gefitinib, last day of treatment, 2, 8 and 24 hours after the AM dose
[9] = system: pEGFR (pY1173) in LG1049 tumors; experiment: pEGFR levels in LG1049 tumor lysates (Western blot, Example 72); assay type: in vivo, mice; conditions: osimertinib 25 mg/kg QD, 5 days of treatment, 4H after the final dose
From the text: as §2

Row | SMILES | antitumor activity (tumor volume, FIG. 25) [1] | antitumor activity (tumor volume, FIG. 19) [2] | body weight (FIG. 29) ([3]; mouse, in vivo) | antitumor activity / tumor regression (tumor volume, FIG. 28) ([3]; oral, osimertinib 25 mg/kg QD 28 days, Example 32 25 mg/kg BID (18 days as single agent), combination compared to osimertinib alone, single agent relative to vehicle) | antitumor activity (tumor volume, FIG. 31A-31E) [4] | knockdown of pSTAT3 in tumors (FIG. 30) [5] | pSTAT3 knockdown in tumors (FIG. 21) [6] | knockdown of pSTAT3 in tumors (FIG. 27) [7] | duration of pSTAT3 knockdown in tumors (FIG. 24) [8] | body weight (FIG. 29) ([3]; LG1049 tumor bearing NSG mice, weight loss attributed to tumor growth) | tumor regrowth when treatment was stopped after 28 days ([3]; after 28 days of dosing) | knockdown of pEGFR in tumors (FIG. 30) [9]
1 | COc1nn(C)cc1Nc1nccc(-c2c[nH]c3c(NC(=O)[C@@H](C)N4CCN(C)CC4)cccc23)n1 [Example 32, (2R)-N-(3-{2-[(3-methoxy-1-methyl-1H-pyrazol-4-yl)amino]pyrimidin-4-yl}-1H-indol-7-yl)-2-(4-methylpiperazin-1-yl)propanamide] | only modest antitumor activity | only weak antitumor activity | significant weight loss | no significant activity relative to vehicle control treatment | no significant activity relative to vehicle control treatment | robust knockdown | dose dependent increase in pSTAT3 knockdown | Knockdown of pSTAT3 was observed | dose dependent increase in the duration of pSTAT3 knockdown |  |  | 
2 | C=CC(=O)Nc1cc(Nc2nccc(-c3cn(C)c4ccccc34)n2)c(OC)cc1N(C)CCN(C)C [osimertinib, reference compound] |  |  |  |  |  |  |  |  |  | lack of significant weight loss | tumors rapidly regrew | robust knockdown
